Values after ≈ are worked out from the molar mass of the structure shown.
Key:
L929 = experiment: (§1) Cytotoxicity against mouse L929 cells by alamar blue method; format: toxicity, cell-based; conditions: l929
[1] = as §1; format: toxicity, cell-based; conditions: mouse, L929 cells
Leishmania tropica [2] = experiment: Antileishmanial activity against Leishmania tropica MHOM/A7/1974/SAF-K27 incubated for 48 hrs by Neubauer hemocytometer analysis; format: functional, organism-based; conditions: MHOM/A7/1974/SAF-K27, 48 h
RAW264.7 = experiment: (§2) Cytotoxicity against mouse RAW264.7 cells by alamar blue method; format: toxicity, cell-based; conditions: raw264.7
[3] = as §2; format: toxicity, cell-based; conditions: mouse, RAW264.7 cells
[4] = tested on: DHFR (human) versus PTR1 (Leishmania major); experiment: Selectivity index, ratio of IC50 for human DHFR to IC50 for Leishmania major PTR1; format: toxicity; conditions: human DHFR enzyme and Leishmania major PTR1 enzyme, read-out: Ratio IC50
Pteridine reductase 1 = target: T1, Pteridine reductase 1 (Leishmania major, UniProt Q01782); experiment: Inhibition of recombinant Leishmania major PTR1 expressed in Escherichia coli BL21 using folic acid as substrate in presence of NADPH
T1 sequence (Q01782 whole entry): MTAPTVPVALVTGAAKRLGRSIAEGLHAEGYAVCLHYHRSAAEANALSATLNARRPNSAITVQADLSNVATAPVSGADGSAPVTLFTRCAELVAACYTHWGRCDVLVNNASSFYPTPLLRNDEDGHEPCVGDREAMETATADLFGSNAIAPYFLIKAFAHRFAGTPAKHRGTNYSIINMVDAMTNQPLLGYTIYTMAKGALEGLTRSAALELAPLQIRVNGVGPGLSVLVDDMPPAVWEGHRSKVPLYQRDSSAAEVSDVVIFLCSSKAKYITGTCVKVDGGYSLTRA

Leishmania infantum [5] = experiment: Antileishmanial activity against Leishmania infantum MHOM/TN/1980/IPT1 incubated for 48 hrs by Neubauer hemocytometer analysis; format: functional, organism-based; conditions: MHOM/TN/1980/IPT1, 48 h
Dihydrofolate reductase = target: T2, Dihydrofolate reductase (Homo sapiens, UniProt P00374); experiment: Inhibition of human DHFR using dihydrofolate as substrate in presence of NADPH; format: toxicity
T2 sequence (P00374 whole entry): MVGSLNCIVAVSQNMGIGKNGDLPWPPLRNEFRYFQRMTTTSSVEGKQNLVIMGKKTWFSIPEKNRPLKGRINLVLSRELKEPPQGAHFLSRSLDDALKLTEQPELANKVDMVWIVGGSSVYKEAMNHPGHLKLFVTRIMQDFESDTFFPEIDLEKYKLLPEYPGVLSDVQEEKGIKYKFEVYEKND

Leishmania tropica [6] = experiment: Antileishmanial activity against Leishmania tropica MHOM/A7/1974/SAF-K27 incubated for 48 hrs by XTT method; format: functional, organism-based; conditions: MHOM/A7/1974/SAF-K27, 48 h
Leishmania infantum [7] = experiment: Antileishmanial activity against Leishmania infantum MHOM/TN/1980/IPT1 incubated for 48 hrs by XTT method; format: functional, organism-based; conditions: MHOM/TN/1980/IPT1, 48 h

- IC50 (Leishmania tropica [2]): 10.2 µg/mL (≈ 25.1 µM)
- IC50 (Pteridine reductase 1): 14.9 µM
- IC50 (Leishmania infantum [5]): 12.3 µg/mL (≈ 30.3 µM)
Structure (SMILES): O=C(Nc1nc2cnc(N3CCCC3)nc2s1)c1ccc(Cl)c([N+](=O)[O-])c1
- log10 IC50 (µg/mL) (L929): 1.39
- IC50 [1]: 24.4 µg/mL (≈ 60.2 µM)
- log10 IC50 (µg/mL) (RAW264.7): 0.95
- IC50 [3]: 8.98 µg/mL (≈ 22.2 µM)
- selectivity ratio [4]: 25.1
- IC50 (Dihydrofolate reductase): 373 µM
- IC50 (Leishmania tropica [6]): 10.6 µg/mL (≈ 26.2 µM)
- IC50 (Leishmania infantum [7]): 12.7 µg/mL (≈ 31.3 µM)

Reference: ChEMBL document CHEMBL5352486, “Design, synthesis, in vitro - In vivo biological evaluation of novel thiazolopyrimidine compounds as antileishmanial agent with PTR1 inhibition” (Eur J Med Chem, 2023)
